Entries after “also recorded” stand apart in the source; their conditions may differ.
Assays:
[1] = system: feline CD3^+CD4^+ T cells; test: CFSE-based feline CD3+CD4+ T-cell proliferation; set-up: species or system cat; conditions: FIV-vaccinated cats; for CD4, frequency of responders: FIV epitope peptide; for CDC4^+ T (T-cell proliferation), frequency of responders: FIV peptides
Protocol: Carboxyfluorescein diacetate succinimide ester (CFSE)-proliferation was performed according to the manufacturer's protocol (Invitrogen, Grand Island, N.Y.) and processed using a previously described modification. The modification consisted of 2.5×10^5 CFSE-labeled feline PBMC stimulated for 5 days (37° C., 5% CO2) with 4 μg/mL peptide in culture media (RPMI medium 25 µg/mL gentamycin, and 10% heat-inactivated fetal bovine serum (FBS)). Peptide pools consisted of 3-5 overlapping peptides of 4 μg/mL each. The antibodies used for flow cytometry based proliferation analysis consisted of murine anti-feline (Fe) CD3 monoclonal antibody (MAb clone kindly provided by Drs. Yorihiro Nishimura and Takayuki Miyazawa; described in [32]) combined with secondary goat anti-mouse IgG3-APC/CY7 MAb (SouthernBiotech, Birmingham, Ala.; Cat#1100-19); and murine anti-FeCD4-PE MAb (SouthernBiotech, Cat#8130-09); and murine anti-FeCD8 MAb (MAb clone kindly provided by Dr. Nazareth Gengozian, described in [33]) with secondary goat anti-mouse IgG2a-PE/CY7 (Southern Biotech, Cat#1080-17). The murine anti-B220-APC MAb for detecting feline B cells (SouthernBiotech, Cat#1665-11) and previously described MAbs for CFSE were used for FACS phenotyping. Both FACS phenotyping and CFSE-proliferation analyses were performed with BD LSRII and FACSDiva™ Software (BD Biosciences, San Jose, Calif.). The final value for each sample was derived after subtraction of the average value of the media controls using a positive threshold of ≥1 CFSE^low.
Concurrently, the overlapping peptide pools of FIV structural/enzyme proteins were used to stimulate PBMC and T cells from FIV-vaccinated cats. These cats were vaccinated with prototype dual-subtype FIV vaccine which was the prototype to our commercial FIV vaccine (Coleman et al., 2014). The feline assays (Example 1) equivalent to those of human assays (Sanou et al., 2013; Roff et al., 2015) were used except for ICS analysis. In place of ICS for cytolysin/cytotoxins, IL2 ELISpot analysis was performed. […] The results for FIV-vaccinated cats included IFNγ and IL2 productions and CD3^+CD4+ and CD3^+CD8^+ T-cell proliferation (Table 9, the second set of results).
Carboxyfluorescein diacetate succinimide ester (CFSE)-proliferation analysis was according to the manufacturer's protocol (Invitrogen-Fisher, Carlsbad, Calif.) and processed as previously described (Roff et al. (2015)) using the following modifications: anti-feline CD3 antibody ((clone NZM1), a generous gift from T. Miyazawa (Univ. of Tokyo, Japan)) in combination with APC-conjugated anti-mouse IgG3 (Southern Biotech, Birmingham, Ala.), PE-conjugated anti-feline CD4 antibody (Southern Biotech), and anti-feline CD8 antibody (gift from N. Gengozian, University of Tennessee (Gengozian et al. (1997))) in combination with PE/Cy7-conjugated anti-mouse IgG2b (Southern Biotech) to detect the proliferation of feline CD3^+CD4+ T cells and feline […]. All results shown in the figures (FIGS. 7A-1, 7B-1, 7A-2, 7B-2, 7A-3, 7B-3) are after subtracting the average value of each results from all control cats. The threshold of CFSE proliferation is ≥0.5 CFSE^low. […]

[2] = ELISA and FIV immunoblot for antibodies to vaccine peptides/MAPs; assay type: in vivo, cat; conditions: IWV/MAP-vaccinated cats, throughout the vaccination (pilot study)
Protocol: To avoid detection of vaccine antibodies to p24 and RT, post-challenge sera were evaluated for infection-induced FIV antibodies by ELISA using 200 ng/well of transmembrane peptide (TM, aa 694-705: […] (SEQ ID NO:68)) as previously described. The positive threshold for anti-TM antibodies was set at 0.2 O.D. The post-vaccination sera immediately before challenge were evaluated for NAb titer to FIVPet and FIVFC1 by NAb assay as previously described. The post-vaccination/pre-challenge sera were tested for antibodies to vaccine peptides by ELISA using each peptide as substrate and by FIV immunoblot with mini-blot modification as previously described. All ELISA thresholds were set at twice the average of the individual serum from 15-20 SPF cats.

FIVFC1 [3] = test: FIV enhancement and suppression (E/S) analysis of in vitro FIV infection of feline PBMC; assay type: cell-based, feline immunodeficiency virus; conditions: for Direct effect on in vitro FIV infection (enhancement/suppression): 7 μg/mL peptide or MAP, PBMC of uninfected SPF cats, versus virus control; for FIV Test E/S (enhancer/suppressor analysis): FIV peptides, in vitro FIV infection of uninfected cat PBMC
Protocol: FIV viral enhancement or suppression was determined using a 48-well modification of the method described for detecting FIV enhancing activity of IFNγ and FIV suppressive activity of IFNα [37]. […] MAP1c contained four branched chains of peptide Fp4-3. T-cell mitogen concanavalin A (ConA) at 4 μg/mL was used as an infection enhancing control. Six hours after the culturing with peptide, MAP, or ConA, varying dilutions of FIVFC1 were added to the wells. Seventy-two hours later the cells were re-cultured in fresh culture media with ConA-stimulated autologous PBMC (0.25-0.5×10^6) using the same amount of corresponding peptide, MAP, ConA or media. On Day 7, 10, and 13 of culture, 0.5 mL of culture fluid was collected and 0.5 mL of fresh media added to maintain a consistent volume. The harvested culture samples were analyzed for FIV titer using the previously described RT assay. The results are shown as the end-point dilution titer from two studies using PBMC from different SPF donors.
Statistical analysis. The statistically significant differences between the end-point dilution titers of the peptide or MAP culture samples and either the virus control samples or specific MAP culture samples were calculated using a paired Student t-test with a two-tailed distribution (SigmaPlot version 11.0). Statistical comparisons between pre and post-vaccination(s) were similarly performed. The comparison was considered statistically significant when p<0.05.

FIVFC1 [4] = test: as above; assay type: cell-based, feline immunodeficiency virus; conditions: FIV-vaccinated cats; for E/S pMAP: viral enhancement or suppression: Palmitoyled Pam-MAP (pMAP) of the peptide, ** = MAP(Fp4-3/Fp14-1); for E/S: viral enhancement or suppression: peptide

AGLRQSLEQYQVVKQ [FSU4]
CD4, frequency of responders [1]: +++ (41%-54% (+++))
CDC4^+ T (T-cell proliferation), frequency of responders [1]: +++ (40.1%-54% (+++))

KFLYTAFAMQELR [FTM4-3]
CD4, frequency of responders [1]: ++ (26%-40% (++))
CDC4^+ T (T-cell proliferation), frequency of responders [1]: ++ (25.1%-40% (++))

KKKSGKWRMLIDFRV [FRT3-3]
Peptide-specific serum antibodies (ELISA) [2]: No specific antibodies
Direct effect on in vitro FIV infection (enhancement/suppression) (FIVFC1 [3]): significant enhancement; also recorded: enhanced in vitro FIV infection; also recorded: enhance/
FIV Test E/S (enhancer/suppressor analysis) (FIVFC1 [3]): ↑
CD4, frequency of responders [1]: ++ (26%-40% (++))
CDC4^+ T (T-cell proliferation), frequency of responders [1]: ++ (25.1%-40% (++))
E/S pMAP: viral enhancement or suppression (FIVFC1 [4]): ↓X
E/S tMAP: viral enhancement or suppression (FIVFC1 [4]; Tat-MAP (tMAP) of the peptide): ↓+
E/S: viral enhancement or suppression (FIVFC1 [4]): ↑

LLLILCLPTLVDCIRN [FTM8(20)]
CD4, frequency of responders [1]: ++ (26%-40% (++))
CDC4^+ T (T-cell proliferation), frequency of responders [1]: ++ (25.1%-40% (++))

PTDMATLIMAAPGCA [Fp4-3]
Peptide-specific serum antibodies (ELISA) [2]: No specific antibodies
Direct effect on in vitro FIV infection (enhancement/suppression) (FIVFC1 [3]): significantly enhanced FIV infection
Direct effect on in vitro FIV infection (enhancement/suppression) (FIVFC1 [3]; listed as Fp4-3 real): enhancing
FIV Test E/S (enhancer/suppressor analysis) (FIVFC1 [3]): ↑
CD4, frequency of responders [1]: ++++ (>54% (++++))
CDC4^+ T (T-cell proliferation), frequency of responders [1]: ++++ (>54% (++++))
E/S pMAP: viral enhancement or suppression (FIVFC1 [4]): ↑**
E/S: viral enhancement or suppression (FIVFC1 [4]): ↑

WRMLIDFRVLNKL [FRT3-4]
Peptide-specific serum antibodies (ELISA) [2]: No specific antibodies
Direct effect on in vitro FIV infection (enhancement/suppression) (FIVFC1 [3]): significantly suppressed FIV infection; also recorded: suppress
FIV Test E/S (enhancer/suppressor analysis) (FIVFC1 [3]): ↓
CD4, frequency of responders [1]: + (12.5%-25% (+))
CDC4^+ T (T-cell proliferation), frequency of responders [1]: + (12.5%-25% (+))
E/S: viral enhancement or suppression (FIVFC1 [4]): ↓

— patent publication US10758609B2, “Cross-reactive T-cell epitopes of HIV, SIV, and FIV for vaccines in humans and cats” (priority 2015, dated 2020)
